Data from patent US20040022777A1, “Fragments and antagonists of heat shock protein 60” (priority 1999, published 2004).
Ends that are not written are not given here.

Key:
Format in all cases: cell-based, mouse
[1] = system: hsp60 induced TNFα and Nitric oxide (NO) secretion in J774 cells; assay: Screening of 10-mer peptides for inhibition of hsp60 induced (and CpG induced) TNFα secretion; conditions: crude peptides at a dilution of 1:10
Method: The crude peptides were re-suspended in 500 μl water and tested at a dilution of 1:10, for inhibition of hsp60 induced TNFα and Nitric oxide (NO) secretion in J774 cells (as described in example no. 1 of the application). Selected peptides were tested (in an equivalent assay) also for inhibition of CpG induced TNFα secretion. CpG is a non-specific immunostimulatory oligonucleotide motif with the sequence: […]. CpG DNA: a novel immunomodulator Trends Microbiol 1999; 7:64-5). CpG stimulates J774 cells to produce TNFα in a mechanism different to that used by hsp60 and thus serves as a negative control for non-selective inhibition of TNF secretion (which is not mediated through specific inhibition of hsp60). […] The peptides in this chart were selected for re-screening based on the activity found in screening all the 192 peptides synthesized. The results are presented as percent inhibition of TNF-secretion in response to induction with hsp60 or CpG, and are the average of two repeats.

[2] = system: bone marrow-derived macrophages of C57BL/6 and C3H/HeN mice; assay: NO (nitrite) production by bone marrow-derived macrophages with wild-type Tlr4 (Griess reaction); conditions: C57BL/6 and C3H/HeN macrophages; LPS 10 ng/ml, hsp60 10 μg/ml; 24 h
[3] = system: bone marrow-derived macrophages of C57BL/6 and C3H/HeN mice; assay: TNFα production by bone marrow-derived macrophages with wild-type Tlr4 (sandwich ELISA); conditions: C57BL/6 and C3H/HeN macrophages; LPS 10 ng/ml, hsp60 10 μg/ml; 6 h
[4] = system: bone marrow-derived macrophages of C3H/HeJ mice (mutant Toll-like receptor 4); assay: TNFα production by bone marrow-derived macrophages with mutant Tlr4 (sandwich ELISA); conditions: C3H/HeJ macrophages; LPS 10 ng/ml, hsp60 10 μg/ml, oligonucleotides 30 μg/ml; 6 h
[5] = system: bone marrow-derived macrophages of C3H/HeJ mice (mutant Toll-like receptor 4); assay: NO (nitrite) production by bone marrow-derived macrophages with mutant Tlr4 (Griess reaction); conditions: Tlr4 wild-type compared with Tlr4 defective macrophages; oligonucleotide 30 μg/ml; 24 h

Row | Substance | inhibition of hsp60 induced TNFα secretion, activity and specificity versus CpG induced TNFα secretion [1] | NO production [2] | TNFα secretion [3] | TNFα response [4] | NO response / NO formation in the two macrophage types [5]
1 | VLKVGGTSDV [Peptide No. 173] | hsp60-inhibiting | – | – | – | –
2 | Lipopolysaccharide [LPS, reference compound] | – | responded | rapid secretion of large amounts of TNFα | no response | –
3 | 5′-TCCATGAGCTTCCTGATGCT -3′ (DNA TCCATGAGCTTCCTGATGCT; chemistry not given here) [ODN1720, non-stimulatory oligonucleotide lacking a CpG motif] | – | – | – | did not provoke a response | failed to induce NO formation
4 | KVGGTSDVEV [Peptide No. 175] | hsp60-inhibiting | – | – | – | –
5 | 5′-ACCGATAACGTTGCCGGTGACG-3′ (DNA ACCGATAACGTTGCCGGTGACG; chemistry not given here) [Pal+, immunostimulatory oligonucleotide containing a CpG motif] | – | – | – | less stimulatory | failed to induce NO formation
6 | 5′-TCCATGACGTTCCTGATGCT-3′ (DNA TCCATGACGTTCCTGATGCT; chemistry not given here) [ODN1668, immunostimulatory oligonucleotide containing a CpG motif] | – | – | – | strong TNFα response | very similar NO response
